Reference: patent US20220047596A1, “COMBINATION OF PARP INHIBITOR AND BRD4 INHIBITOR FOR THE TREATMENT OF CANCER” (Board of Regents, The University of Texas System, priority 2018, published 2022)

Key:
cancer cell lines = assay: Viability measurement (PrestoBlue, 96 hr) with CalcuSyn combination index; type: cell-based, Human; set-up: synergy with JQ1 at fixed PARPi concentration: dose or concentration left out as unconfirmed; settings: for synergy with JQ1 at fixed PARPi concentration: 96 hr, HOC1 cells; for synergistic effects in combinations with BRD4i (JQ1): similar combination indices indicative of synergy
Method: (§1) Viability Measurements: Five thousand cells were seeded into sterile 96-well plates and treated with indicated drug combinations for 96 hr. DMSO was used as a vehicle. PrestoBlue® Cell Viability Reagent (Thermo Fisher Scientific) was used to assess cell viability. Background values from empty wells were subtracted and data normalized to vehicle-treated control. Synergistic effects between both compounds were calculated using the Chou-Talalay equation in CalcuSyn software, which takes into account both potency (IC50) and shape of the dose-effect curve. […], and CI>1 indicates antagonism.

PARP = settings: cited from earlier work
HRD gene signature = HRD gene signature score applied to public transcriptional profiling data; settings: human or murine tumors; GEO datasets
Source text: Microarray Analysis and IPA Analysis: Gene expression datasets of GSE29799 (Zuber et al., 2011), GSE66048 (Ambrosini et al., 2015), GSE44929 (Love′ n et al., 2013), GSE85840 (Rhyasen et al., 2016), GSE31365 (Delmore et al., 2011), and GSE43392 (Puissant et al., 2013) were downloaded from Gene Expression Omnibus (GEO) (https://www.ncbi.nlm.nih.gov/geo). Raw data were subjected to intensity normalization using affy package in R (Bioconductor), followed by log transformation and quantile normalization. Normalized data were checked for quality and determined to be free of outliers by analysis using box plots, density plots and MA plots. Differential expression genes after BRD4 inhibition were calculated using a linear model provided by the limma package in R based on the cutoffs: 2 for absolute fold change, 0.05 for p value.
HRD Score Acquisition from HRD Signature HRD signature consisting of 230 differentially expressed genes was obtained as previously described (Peng et al., 2014). Normalized gene expression data (GSE29799, GSE66048, GSE44929, GSE85840, GSE31365, and GSE43392) after BRD4 inhibition were subjected to unsupervised clustering with these 230 genes. HRD scores were determined by calculating the Pearson's correlations between median centered gene expression levels for HRD signature and gene expression levels for a given sample (Peng et al., 2014).

U2OS DR-GFP cells = assay: U2OS DR-GFP HR reporter assay; type: cell-based, Human; settings: 100 nM for 24 hr, then I-Sce1 for 48 hr
Source text: HR Repair Analysis: U2OS DR-GFP cells contain a single copy of the HR repair reporter substrate DR-GFP, which contains two nonfunctional GFP open reading frames, including one GFP-coding sequence that is interrupted by a recognition site for the I-SceI endonuclease. Expression of I-SceI leads to formation of a DSB in the I-SceI GFP allele, which can be repaired by HR using the nearby GFP sequence lacking the N- and C-termini, thereby producing functional GFP that can be detected by flow cytometry. […] Then, cells were transfected with a plasmid expressing I-SceI (pCBASce) for 48 hr. Cells transfected with an empty vector were used as a negative control. GFP-expressing plasmid (pEGFP-C1) was used for transfection efficiency control. Flow cytometry analysis was performed to detect GFP^+ cells using FACScalibur with CellQuest software (Becton Dickinson). The repair efficiency was scored as the percentage of GFP^+ cells.

HOC1 cells [1] = assay: RPA and RAD51 foci immunofluorescence; type: cell-based, Human; settings: for RAD51 nuclear foci: after PARPi or IR, compared with vehicle
Method: Immunofluorescence Staining and Microscopy: Briefly, cells were washed with PBS and fixed with 4% paraformaldehyde for 5 min, followed by permeabilization with 0.5% NP-40 and 1% Triton X-100 for 10 min Cells were then blocked with 5% FBS for 30 min and incubated with primary antibody (anti-RAD51, PC130, 1:100; anti-g-H2AX (Ser139), clone JBW301, 1:1000 from Millipore Corp; anti-RPA32, ab2175, 1:500 from Abcam) for 2 hr, followed by secondary antibody incubation for 1 hr at room temperature. Slides were sealed in mounting medium containing DAPI (Vector Laboratories, H1200) for further image acquisition. TE-2000 imaging acquisition system (Nikon) equipped with a 60× objective lens was used to capture images. Stained was quantified by ImageJ.

OVCAR3 xenografts = assay: OVCAR3 xenograft; type: in vivo, mice; settings: Olaparib 100 mg/kg, AZD5153 2.5 mg/kg, oral gavage, daily, 35 days
Method: 6 weeks old female C.B-17 scid mice were purchased from Charles River Laboratories and used for OVCAR3 xenografts. Tumor cells were injected into female mice of approximately 8-10 weeks of age. All mice were housed under pathogen-free conditions at AstraZeneca AAALAC accredited facility. All animal experiments were conducted in compliance with the National Institute of Health guidelines for animal research and approved by the Institutional Animal Care and Use Committee of AstraZeneca.
OVCAR3 Xenograft: […] OVCAR3 cells were injected subcutaneously in the right flank of mice. Mice were randomized based on tumor volumes using stratified sampling and enrolled into control and treatment groups. Dosing began when mean tumor size reached approximately 200 mm^3 and continued for 35 days.

[2] = Toxicity analysis in the T127 model (blood counts, serum chemistry); type: in vivo, mice; settings: compared with the vehicle group
Source text: Mice were sacrificed when tumor diameter reached maximum limits of 2.5 cmat Day 22 for tissue harvest and blood collection 3 hr after the final treatment.

HOC1 cells [3] = assay: Alkaline comet assay; type: cell-based, Human; settings: 200 nM each, 48 hr
Method: Alkaline Single-Cell Agarose Gel Electrophoresis (Comet) Assays: Alkaline comet assays were performed with Comet Assay Kit (Trevigen) using manufacturer's instructions. Briefly, cell suspensions were embedded in LM (low melting) Agarose and deposited on comet slides. Slides were incubated for 1 hr at 4° C. in lysis solution, followed by immersing slides in freshly prepared alkaline unwinding solution (pH >13) for 20 min at room temperature in the dark. Electrophoresis was carried out for 30 min at 21 V in electrophoresis solution (pH >13). Slides were then stained with SYBR™ Gold (Thermo Fisher Scientific). Tail DNA content was analyzed with Comet score 1.5 software. DNA strand breakage was expressed as “comet tail moment”. The tail moment was measured for a minimum of 50 cells per sample, and average damage from 3 independent experiments was calculated.

DT40 cells = assay: Viability dose response in DT40 WT and PARP1-/- cells; type: cell-based, Chicken
Method: as §1

CtIP = assay: Western blot of CtIP and DNA damage response proteins; type: cell-based, Human
Method: Protein lysates were analyzed by RPPA in MDACC CCSG (The Cancer Center Support Grant) supported RPPA Core. Antibodies and approaches are described at the RPPA website (https://www.mdanderson.org/research/research-resources/core-facilities/functional-proteomics-rppa-core.html). For visualization, 2D and 3D, concentrations and time were averaged for each cell line. Heat map represents “rank-ordered” changes induced by BRD4i treatment, calculated by summing median-centered protein amount normalized to DMSO. Western Blot: To prepare whole cell lysates, cells were lysed with RIPA buffer (Thermo Fisher Scientific) supplemented with Halt™ Protease and Phosphatase Inhibitor (EDTA-free) Cocktail (Thermo Fisher Scientific). After thorough mixing and incubation at 4° C. for 10 min, lysates were centrifuged at 15,000 g at 4° C. for 15 min, and supernatants were collected. To prepare subcellular fraction of nuclear soluble and chromatin-bound fraction, cells were treated with indicated drugs, and then cells were collected. For fractionation, a Subcellular Protein Fractionation kit (Thermo Fisher Scientific) was used following the manufacturer's instructions. The protein content of the cell was determined, and the cellular lysates were separated by 10% SDS-PAGE, and electro-transferred onto polyvinylidene difluoride (PVDF) membranes. After being blocked with 5% non-fat milk in TBST, the membranes were incubated with primary antibodies at 4° C. overnight, followed by 1:2000 horseradish peroxidase (HRP)-conjugated secondary antibody (Abcam) for 1 hr. Bands were visualized using a Pierce™ ECL Western Blotting Substrate (Thermo Fisher Scientific). Primary antibodies used are listed in Key Resources Table.

[4] = tested on: CtIP promoter and enhancer; assay: ChIP-qPCR at CtIP promoter and enhancer; type: cell-based, Human; settings: HOC1; 200 nM, 24 hr
Method: Chromatin Immunoprecipitation (ChIP-qPCR): ChIP assays were performed with EZ-Magna ChIP™ A/G Chromatin Immunoprecipitation Kit (Millipore Corp) as described in manufacturer's instructions. Briefly, cells were crosslinked with 1% formaldehyde. After cell lysis, isolated nuclei were subjected to sonication for chromatin fragmentation. Sheared chromatin was diluted in diluted buffer, and divided into aliquots for immunoprecipitation. Anti-BRD4 antibody (1:50, #13440S, Cell Signaling), anti-H3K27ac antibody (1:100, ab4729, Abcam), anti-H3K4M1 antibody (1:200, ab8895, Abcam), anti-Pol II antibody (1:100, sc-47701, Santa Cruz) or normal Rabbit IgG control (1:200, #2729, Cell Signaling) were added to chromatin samples, followed by overnight incubation at 4° C., with rotation. Antibody-chromatin complexes were captured using magnetic protein A/G beads. Purified DNAs were subjected to quantitative PCR (qPCR). All primers are list in Table 2.

HOC1 cells [5] = assay: Detection of ssDNA by BrdU immunofluorescence under non-denaturing conditions; type: cell-based, Human; settings: 4 hr after 10 Gy irradiation
Method: Detection of ssDNA by Immunofluorescence: Cells were grown in […] BrdU for two doubling times before irradiation. […] Cells were placed on ice 10 min before irradiation and kept on ice during the irradiation with 10 Gy. […] BrdU was stained (anti-BrdU, ab8152, 1:100 from Abcam) in non-denaturing conditions which enables detection of BrdU incorporated in ssDNA. TE-2000 imaging acquisition system (Nikon) equipped with a 60× objective lens was used to capture images. Stained was quantified by ImageJ.

[6] = tested on: OVCAR8 and WU-BC3 PDX tumors; assay: IHC of OVCAR8 and WU-BC3 PDX tumors at study termination; set-up: species or system mice; settings: mouse, in vivo
Method: Immunohistochemical Staining (IHC) Tissues were fixed in 10% formalin overnight and embedded in paraffin. […] paraffin embedded sections were first deparaffinized in xylene. IHC were carried out with EnVision Detection Systems HRP. Rabbit/Mouse (DAB+) kit (Agilent) following manufacturer's instructions. Endogenous peroxidase was blocked by incubation with 0.3% hydrogen peroxide for 15 min. Antigen retrieval was performed by boiling the slides in citrate buffer (10 mM, pH 6.0) in a water bath for […]. Slides were rinsed in PBS Tween 0.05% and blocked for […] with 5% bovine serum albumin (BSA). Slide were incubated overnight at 4° C. with primary antibodies (anti-BRD4,
#13440S, 1:200; anti-CtIP, #9201S, 1:200 from Cell Signaling Technology; anti-RAD51, PC130, 1:100; anti-g-H2AX (Ser139), clone JBW301, 1:500 from Millipore Corp; and anti-pRPA32(S4/8), A300-245A, 1:1000 from Bethyl Laboratories), followed by 1 hr with Labelled Polymer-HRP at room temperature. Negative controls were treated identically, but without primary antibody. Subsequently, slides were incubated with DAB+ Chromogen. Slides were counterstained with hematoxylin. After mounting, slides were observed under microscope and photographed.
OVCAR8 Xenografts: 3×10^6 OVCAR8 cells were injected s.c. into mouse flanks in a 1:1 mix of PBS and Matrigel. […] Tumor volumes were calculated using […]. […]

C[C@]1(c2nc3c(C(N)=O)cccc3[nH]2)CCCN1 [ABT888]
synergy with JQ1 at fixed PARPi concentration (cancer cell lines): synergized with JQ1 | synergistic effects in combinations with BRD4i (JQ1) (cancer cell lines): synergistic effects were maintained | PARP trapping activity (PARP): weakest | concentration required for PARP trapping (PARP): 50 mM

COc1nnc2ccc(N3CCC(c4ccc(OCCN5CCN(C)C(=O)[C@H]5C)cc4)CC3)nn12 [AZD5153]
HRD score (HRD gene signature): increased HRD score | HR repair (percentage of GFP+ cells) (U2OS DR-GFP cells): attenuated HR repair | RAD51 nuclear foci (HOC1 cells [1]): decreased RAD51 nuclear foci | tumor growth inhibitions (TGI) (OVCAR3 xenografts): 83% | numbers of white blood cells [2]: slight decrease but remained in the normal range

Cn1ncnc1[C@H]1c2n[nH]c(=O)c3cc(F)cc(c23)N[C@@H]1c1ccc(F)cc1 [BMN673]
DNA damage (comet assay) (HOC1 cells [3]): modestly induced DNA damage | synergy with JQ1 at fixed PARPi concentration (cancer cell lines): synergized with JQ1 | sensitivity of cell lines to PARPi alone (cancer cell lines; OAW42, A2780CP, A2780, UWB1.289, OC316, ARK1, HCC1187, BT20, MDA-MB-436): highly sensitive | sensitivity of PARP1-/- DT40 (DT40 cells): resistant | PARP trapping activity (PARP): most active

Cc1sc2c(c1C)C(c1ccc(Cl)cc1)=N[C@@H](CC(=O)OC(C)(C)C)c1nnc(C)n1-2 [JQ1]
HRD score (HRD gene signature): increased HRD score | HR repair (percentage of GFP+ cells) (U2OS DR-GFP cells): attenuated HR repair | expression of other MRN complex proteins (CtIP; 200 nM, 48 hr, HeyA8, OVCAR8, HOC7 cells): did not markedly alter | CtIP and pRPA32 (S4/8) protein (CtIP; HOC1 and HeyA8 cells, dose and time course): decreased CtIP and phosphorylated RPA32 | RAD51 levels (CtIP; HeyA8 and HOC7, 200 nM, 48 hr): modestly decreased | BRCA1 levels (CtIP; MCAS, 200 nM, 48 hr): modestly decreased | CtIP protein (CtIP; all lines assessed, 200 nM, 48 hr): consistently decreased | BRD4 association with the CtIP promoter and enhancer [4]: decreased | H3K27Ac, H3K4Me1 at the CtIP promoter and enhancer [4]: reduced | association of RNA Pol-II with the CtIP promoter and enhancer [4]: decreased association | formation of ssDNA (HOC1 cells [5]): significantly reduced | RAD51 nuclear foci (HOC1 cells [1]): decreased RAD51 nuclear foci | RPA focus formation (HOC1 cells [1]; in response to PARPi or IR): severely impaired | DNA damage (comet assay) (HOC1 cells [3]): modestly induced DNA damage | resensitization of PARPi-resistant cells to PARPi (cancer cell lines; A2780CP_R, OAW42_R and OC316_R): resensitized | PARPi resistance mediated by 53BP1 knockdown (cancer cell lines; BRCA1 knockdown MCF10A, BRCA1 mutant UWB1.289 and COV362 cells): reversed resistance | CtIP and pRPA32 (S4/8) (IHC) [6]: decreased | gH2AX (IHC) [6]: increased

NC(=O)c1cccc2cn(-c3ccc([C@@H]4CCCNC4)cc3)nc12 [Niraparib]
PARP trapping activity (PARP): intermediate in activity

O=C(c1cc(Cc2n[nH]c(=O)c3ccccc23)ccc1F)N1CCN(C(=O)C2CC2)CC1 [Olaparib]
synergy with JQ1 at fixed PARPi concentration (cancer cell lines): synergized with JQ1 | synergistic effects in combinations with BRD4i (JQ1) (cancer cell lines): synergistic effects were maintained | tumor growth inhibitions (TGI) (OVCAR3 xenografts): 35%

CNCc1ccc(-c2[nH]c3cc(F)cc4c3c2CCNC4=O)cc1 [Rucaparib]
PARP trapping activity (PARP): intermediate in activity
